# Laboratory results: publication PMC4774911, “Biochemical Screening of Five Protein Kinases from Plasmodium falciparum against 14,000 Cell-Active Compounds” (PLoS ONE, 2016)
# Legend:
# [1] = biological target: T1, Plasmodium falciparum calcium-dependent protein kinase 1 (CDPK1) (Plasmodium falciparum, UniProt P62344); test: CDPK1 Kinase-Glo ATP-consumption screen and dose-response; assay type: biochemical; conditions: hits below 1 uM; read-out: CDPK1 IC50
# T1 construct: 6-Histidine (N); made in house
# T1 sequence (P62344 whole entry): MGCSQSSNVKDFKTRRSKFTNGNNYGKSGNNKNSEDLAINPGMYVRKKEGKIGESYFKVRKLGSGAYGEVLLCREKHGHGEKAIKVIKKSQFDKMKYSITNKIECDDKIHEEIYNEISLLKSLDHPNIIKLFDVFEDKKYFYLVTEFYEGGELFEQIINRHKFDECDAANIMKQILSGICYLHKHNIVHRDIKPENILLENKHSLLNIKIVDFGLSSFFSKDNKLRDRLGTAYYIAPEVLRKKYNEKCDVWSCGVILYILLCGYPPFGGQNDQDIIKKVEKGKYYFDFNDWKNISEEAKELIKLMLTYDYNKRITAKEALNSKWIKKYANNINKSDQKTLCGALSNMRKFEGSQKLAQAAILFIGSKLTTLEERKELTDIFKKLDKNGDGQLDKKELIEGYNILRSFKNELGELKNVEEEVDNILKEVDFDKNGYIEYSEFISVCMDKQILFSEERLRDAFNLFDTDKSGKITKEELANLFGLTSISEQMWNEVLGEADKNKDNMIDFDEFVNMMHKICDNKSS
# Description: Biochemical assays were performed in white 384-well plates (Nunc). Liquid transfers were done manually with 8-channel pipets. Compounds were initially tested in a single-point screen (final concentration 1 μM). […] The catalytic activity of each kinase was considered proportional to ATP consumed, as determined from measurements of residual [ATP] with the luciferase-based reagent Kinase-Glo (Promega) following incubation. Luminescence (proportional to residual [ATP]) was measured on the plate readers FLx800 (BioTek Instruments, Winooski, VT, USA) and MicroBeta^2 (PerkinElmer, Waltham, MA, USA). Incubation times were chosen to ensure near-complete ATP depletion in the absence of inhibition, thus maximizing the difference in signal between inhibited and uninhibited wells.
# 40 μM Syntide-2 was used as a substrate; BKI-1 [14] was used as a control inhibitor, while reaction mixtures lacking Syntide-2 were included as an additional negative control. Incubation time was 90 minutes. Reactions were terminated by adding excess EGTA (5 mM), which sequesters Ca^2+ and halts calcium-dependent kinase activity.
# [2] = system: HepG2 cells; conditions: HepG2 cells; downloaded from ChEMBL ref F.J. Gamo et al., Nature 2010; cited from earlier work
# [3] = system: P. falciparum 3D7 cells; conditions: P. falciparum 3D7; downloaded from ChEMBL ref F.J. Gamo et al., Nature 2010; cited from earlier work
# [4] = system: DD2; parameters: method as in F.J. Gamo et al., Nature 2010; conditions: P. falciparum Dd2; downloaded from ChEMBL ref F.J. Gamo et al., Nature 2010; cited from earlier work
# [5] = system: 3D7 PFLDH; parameters: method as in F.J. Gamo et al., Nature 2010; conditions: downloaded from ChEMBL ref F.J. Gamo et al., Nature 2010; cited from earlier work
Structure (SMILES),IC50 [1] [nM],PCT_INHIB_HEPG2 [2],PCT_IHB_3D7 [3],pXC50_3D7 [3],PCT_INHB_DD2 [4],PCT_INHIB_3D7_PFLDH [5]
CC(C)(CNC(=O)C1CCN(CCOc2ccc(Cl)cc2)CC1)c1nc(-c2ccc(Cl)c(O)c2)c(-c2ccncc2)[nH]1.Cl [TCMDC-141124],471,40,100,6.149,5,7
CC(C)(CNCc1ccc(F)c(F)c1)c1nc(-c2ccc(Cl)c(O)c2)c(-c2ccncc2)[nH]1.Cl [TCMDC-140672],451,74,100,6.181,89,2
CCn1c(-c2nonc2N)nc2c(-c3cccc(NC(=O)Nc4ccc(Cl)cc4)c3)ncc(OCCCN)c21.O=C(O)C(F)(F)F [TCMDC-136152],44,26,96,6.082,72,0
CC(C)(CNCCOc1ccc(Cl)cc1)c1nc(-c2ccnc(N)n2)c(-c2ccc(Cl)c(O)c2)[nH]1.Cl [TCMDC-141161],755,45,97,6.079,19,0
Cl.Oc1cc(-c2nc(C3(CNCc4ccc(Cl)cc4)CCCCC3)[nH]c2-c2ccncc2)ccc1Cl [TCMDC-141155],846,35,100,6.903,99,2
CC(C)(CNCc1ccc(Cl)c(Cl)c1)c1nc(-c2ccc(Cl)c(O)c2)c(-c2ccncc2)[nH]1.Cl [TCMDC-140688],539,43,100,6.121,97,0
CC(C)(CNC(=O)C1CCN(Cc2ccoc2)CC1)c1nc(-c2ccc(Cl)c(O)c2)c(-c2ccncc2)[nH]1.Cl [TCMDC-140954],425,0,93,6.062,66,0
Nc1ncc(-c2cn[nH]c2)cc1-c1nc2ccc(Cl)cc2[nH]1 [TCMDC-133560],834,46,100,6.098,100,0
CN(C)CCOc1ccc(-c2cc(-c3ccnc(N)n3)c(-c3ccc(Cl)c(O)c3)o2)cc1 [TCMDC-141338],684,14,100,6.01,91,5
CCn1c(-c2nc(-c3ccnc(N4CCN(C)CC4)c3)cnc2N)nc2cc(S(C)(=O)=O)ccc21 [TCMDC-134155],654,44,100,6.089,76,0
CN1CCC=C(C(=O)NCC(C)(C)c2nc(-c3ccc(Cl)c(O)c3)c(-c3ccncc3)[nH]2)C1.Cl [TCMDC-140700],213,39,96,6,96,0
COc1ccc(C(=O)NCC(C)(C)c2nc(-c3ccc(Cl)c(O)c3)c(-c3ccncc3)[nH]2)cc1OCCN(C(C)C)C(C)C.Cl [TCMDC-140736],387,62,100,6.192,96,4
CC(C)(CNCc1ccc(OC(F)(F)F)cc1)c1nc(-c2ccc(Cl)c(O)c2)c(-c2ccncc2)[nH]1.Cl [TCMDC-140708],438,38,100,6.263,99,0
CC(C)(CNCc1ccc(C(F)(F)F)cc1)c1nc(-c2ccnc(N)n2)c(-c2ccc(Cl)c(O)c2)[nH]1.Cl [TCMDC-141162],353,32,100,6.817,37,0
Cl.Oc1cc(-c2nc(-c3ccccc3)[nH]c2-c2ccncc2)ccc1Cl [TCMDC-139660],975,64,96,6.089,91,0
CC(C)(CNCc1ccc(F)c(F)c1)c1nc(-c2ccnc(N)n2)c(-c2ccc(Cl)c(O)c2)[nH]1.Cl [TCMDC-141163],469,41,99,6.131,79,0
CC(C)(CNC(=O)C1CCN(CCOCc2ccccc2)CC1)c1nc(-c2ccc(Cl)c(O)c2)c(-c2ccncc2)[nH]1.Cl [TCMDC-141122],734,11,100,6.208,18,0
CC(C)(CNCc1ccc(Cl)cc1)c1nc(-c2ccc(Cl)c(O)c2)c(-c2ccncc2)[nH]1.Cl [TCMDC-140548],257,86,100,6.322,98,5
CC(C)(CNC(=O)C1CCN(CCOc2ccc(F)c(F)c2)CC1)c1nc(-c2ccc(Cl)c(O)c2)c(-c2ccncc2)[nH]1.Cl [TCMDC-141136],664,41,100,6.5,19,0

# More lines, in order of falling IC50 [1], values ahead:
IC50 [1] [nM],Structure (SMILES),PCT_INHIB_HEPG2 [2],PCT_IHB_3D7 [3],pXC50_3D7 [3],PCT_INHB_DD2 [4],PCT_INHIB_3D7_PFLDH [5]
192,CC(C)(CNC(=O)[C@@H]1CCCCN1)c1nc(-c2ccc(Cl)c(O)c2)c(-c2ccncc2)[nH]1.Cl [TCMDC-141079],0,97,6.075,96,0
190,CC(C)(CNCc1ccccc1)c1nc(-c2ccc(Cl)c(O)c2)c(-c2ccncc2)[nH]1.Cl [TCMDC-140389],77,100,6.27,99,0
186,COc1ccc(CNCC(C)(C)c2nc(-c3ccc(Cl)c(O)c3)c(-c3ccncc3)[nH]2)cc1.Cl [TCMDC-140538],76,100,6.447,99,1
168,CN(C)CCOc1ccc(-c2cc(-c3ccc(Cl)c(O)c3)c(-c3ccnc(N)n3)o2)cc1 [TCMDC-141332],43,100,5.879,95,2
164,CC(C)(CNC(=O)[C@H]1CCCCN1)c1nc(-c2ccc(Cl)c(O)c2)c(-c2ccncc2)[nH]1.Cl [TCMDC-141070],6,98,6.139,98,0
159,COc1cc(-c2nc(C(C)(C)CN)[nH]c2-c2ccncc2)ccc1Br.Cl [TCMDC-140674],17,97,6.114,95,1
150,Nc1ncc(-c2cn[nH]c2)cc1-c1nc2ccc(F)cc2[nH]1 [TCMDC-133559],38,100,6.137,53,0
87,COc1cccc(Nc2nccc(-c3c(-c4cccc(NC(=O)c5c(F)cccc5F)c4)nn4ccccc34)n2)c1 [TCMDC-135508],35,98,6.749,98,0
49,CNCC(C)(C)c1nc(-c2ccc(Cl)c(O)c2)c(-c2ccncc2)[nH]1.Cl [TCMDC-140762],46,98,6.133,96,0
11,CS(=O)(=O)Cc1ccc(Nc2nccc(-c3c(-c4cccc(NC(=O)c5c(F)cccc5F)c4)nn4ncccc34)n2)cc1 [TCMDC-135681],86,97,6.79,93,1
